Assay results as given in patent publication US20260250257A1, “ANTIBACTERIAL AND SYNERGISTIC ACTIVE COMPOUND AND USE THEREOF” (EAST CHINA UNIVERSITY OF SCIENCE AND TECHNOLOGY, priority 2023, published 2026).
Converted amounts (≈) assume the structure as drawn.

Key:
[1] = system: ATCC25922 strain (Escherichia coli); assay: Broth microdilution, antibacterial activity of the compound used alone; type: cell-based; conditions: read-out: Antibacterial activity of the compound of Formula I, ATCC25922
Description: (§1) The broth microdilution method was used to test the antibacterial effects of the compounds of the present invention against various Gram-negative bacterial strains when used alone.

[2] = system: ATCC13883 strain (Klebsiella pneumoniae); assay: as above; type: cell-based; conditions: read-out: Antibacterial activity of the compound of Formula I, ATCC13883
Description: as §1

[3] = system: ATCC9027 strain (Pseudomonas aeruginosa); assay: as above; type: cell-based; conditions: read-out: Antibacterial activity of the compound of Formula I, ATCC9027
Description: as §1

[4] = system: ATCC19606 strain (Acinetobacter baumannii); assay: as above; type: cell-based; conditions: read-out: Antibacterial activity of the compound of Formula I, ATCC19606
Description: as §1

[5] = system: ATCC19606 strains (Acinetobacter baumannii); assay: In vivo synergistic bactericidal activity with polymyxin E, mouse bacteremia model; set-up: species or system Balb/c mice; conditions: for survival rate / synergistic effects with Polymyxin E in vivo: Polymyxin E 0.5 mg/kg + compound 16 mg/kg, Balb/c mice infected with ATCC19606; for survival rate: intraperitoneal
Procedure: Representative compounds I-14 and I-82 were tested for their in vivo synergistic bactericidal activities when combined with polymyxin E. The specific method is as follows:
Normal Balb/c mice (6-8 weeks old) were used, and the animals were randomly divided into four groups (5 mice per group): • I: Control group • II: Polymyxin E at 0.5 mg/kg body weight • III: Polymyxin E at 0.5 mg/kg body weight+Compound I-14 at 16 mg/kg • IV: Polymyxin E at 0.5 mg/kg body weight+Compound I-82 at 16 mg/kg
Freshly cultured ATCC19606 strains (logarithmic growth phase) were washed with saline, adjusted to an OD600 of ~1.0, and mixed at 1:1 (v/v) with 10% porcine mucin. Each mouse was intraperitoneally administered 500 μl of the mixture. 1 hour later, an intraperitoneal injection was given again, with the control group receiving only saline.

[6] = system: ATCC25922 strain (Escherichia coli); assay: Checkerboard antibacterial synergistic activity test with polymyxin E (FIC); type: cell-based; set-up: key: FIC≤0.5 synergy; 0.5–1 additive; 1–2 indifferent; ≥2 antagonism; conditions: combined with polymyxin E
Method in brief: (§2)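 Checkerboard in MH broth: colistin dilutions 16→0.015 μg/ml × test drug 256→4 μg/ml (concentrations before adding inoculum); drug mix plus bacteria, 37° C., 16 h. FIC cut-offs: ≤0.5 synergy; 0.5–1 additive; 1–2 indifferent; ≥2 antagonism.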

[7] = system: ATCC13883 strain (Klebsiella pneumoniae); assay: as above; type: cell-based; set-up: key: FIC≤0.5 synergy; 0.5–1 additive; 1–2 indifferent; ≥2 antagonism; conditions: combined with polymyxin E
Method in brief: as §2

[8] = system: ATCC9027 strain (Pseudomonas aeruginosa); assay: as above; type: cell-based; set-up: key: FIC≤0.5 synergy; 0.5–1 additive; 1–2 indifferent; ≥2 antagonism; conditions: combined with polymyxin E
Method in brief: as §2

[9] = system: ATCC19606 strain (Acinetobacter baumannii); assay: as above; type: cell-based; set-up: key: FIC≤0.5 synergy; 0.5–1 additive; 1–2 indifferent; ≥2 antagonism; conditions: combined with polymyxin E
Method in brief: as §2

[10] = system: clinical strains of Acinetobacter baumannii; assay: Synergistic effect (FIC) on inhibiting clinical strains of Acinetobacter baumannii; type: cell-based; conditions: for FIC: with polymyxin E
Procedure: Polymyxin E was diluted in sterile MH broth medium to concentrations of 16, 8, 4, 2, 1, 0.5, 0.25, 0.125, 0.0625, 0.031, and 0.015 μg/ml, and the drug to be tested was diluted to concentrations of 256, 128, 64, 32, 16, 8, and 4 μg/ml. According to the checkerboard method, combinations of the drug to be tested and polymyxin at different concentrations in ascending order were placed into a 96-well plate, and corresponding blank control groups were set up. 50 μl of the drug solution was added to each well, then 100 μl of bacterial liquid was added, and incubated in a 37° C. incubator for 16 hours. […] Calculation and judgment criteria:
Fractional Inhibitory Concentration (FIC) is calculated as follows: […]
Judgment criteria: FIC≤0.5: synergistic effect; 0.5<FIC<1: additive effect; 1<FIC<2: indifferent effect; FIC≥2: antagonistic effect.
(§3) Compound I-82 of the present invention was used as the representative compound and tested against clinical strains of Acinetobacter baumannii. […] The selected A. baumannii strains were isolated from hospital clinical samples and preserved in the laboratory for research purposes.

[11] = system: clinical strains of Acinetobacter baumannii; assay: MIC of polymyxin E against polymyxin E-resistant clinical strains; type: cell-based
Description: as §3

| Compound | MIC [1] [µg/mL] | MIC [2] [µg/mL] | MIC [3] [µg/mL] | MIC [4] [µg/mL] | survival rate ([5]; Day 5) | synergistic effects with Polymyxin E in vivo [5] | Synergistic activity (FIC value) ATCC25922 [6] | Synergistic activity (FIC value) ATCC13883 [7] | Synergistic activity (FIC value) ATCC9027 [8] | Synergistic activity (FIC value) ATCC19606 [9] | other results |
| --- | --- | --- | --- | --- | --- | --- | --- | --- | --- | --- | --- |
| CC(C)(C)c1cc(-c2csc(N=C(N)N)n2)cc(C(C)(C)C)c1O [Compound I-14] | 256 (≈ 739 µM) | 256 (≈ 739 µM) | 256 (≈ 739 µM) | 256 (≈ 739 µM) | 80% | synergistic effects | 0.38 | 0.31 | 0.53 | 0.13 |  |
| Cc1ccc(Oc2ccccc2-c2csc(N=C(N)N)n2)c(C)c1 [Compound I-82] | 256 (≈ 756 µM) | 256 (≈ 756 µM) | 256 (≈ 756 µM) | 256 (≈ 756 µM) | above 60% | synergistic effects | 0.18 | 0.16 | 0.28 | 0.03 | Synergistic effects against clinical strains of A. baumannii ([10]; clinical strains with various resistance profiles): broad-spectrum synergistic effects; FIC ([10]; strain aba 30): 0.08; FIC ([10]; strain aba 39 (polymyxin E-resistant)): 0.13; FIC ([10]; strain aba 1611): 0.09; FIC ([10]; strain aba 1613): 0.13; FIC ([10]; strain aba 1617): 0.08; FIC ([10]; strain aba 1638): 0.02; FIC ([10]; strain aba 1645): 0.16; FIC ([10]; strain aba 4201): 0.09; FIC ([10]; strain aba 4230): 0.06; FIC ([10]; strain aba 6359): 0.09; FIC ([10]; strain aba 6380): 0.14; FIC ([10]; strain aba 6382): 0.09; FIC ([10]; strain aba 6410): 0.06; FIC ([10]; strain aba mia): 0.05; FIC ([10]; strain aba pmrA (polymyxin E-resistant)): 0.16 |
| polymyxin E |  |  |  |  |  |  |  |  |  |  | MIC ([11]; strain aba39): 64 µg/mL; MIC ([11]; strain aba pmrA): 256 µg/mL; therapeutic effect on bacteremia in mice ([5]; Polymyxin E alone 0.5 mg/kg, Day 5, all mice died): no therapeutic effects |
